From patent publication US4689218A, “Effervescent composition with analgesic activity” (priority 1985, dated 1987)
Entries after “also recorded” stand apart in the source; their conditions may differ.

Legend:
[1] = oral route, tablet; cited from earlier work
oral and gastric mucosa = settings: oral administration (b7), mucosa of the mouth, aqueous suspension (b9); cited from earlier work
[2] = cited from earlier work
[3] = Stability (degradation, colour) of lysine-containing preparation; format: physicochemical; settings: larger amounts of lysine (more than 30-40% of arginine substituted)

SMILES: CC(C)Cc1ccc(C(C)C(=O)O)cc1 (stereo not shown) [Ibuprofen, 2-(4-isobutyl-phenyl)-propionic acid]
- Kinetics of absorption [1]: relatively slow kinetics of absorption
- Irritability of mucosa (oral and gastric mucosa): some irritability of gastric mucosa; also recorded: irritant for the mucosa of the mouth
- Solubility in water [2]: very low solubility in water

SMILES: NCCCC[C@H](N)C(=O)O [lysine]
- Degradation / brown colour of the pharmaceutical preparation [3]: easily degrades making of a brown colour the pharmaceutical preparation
